The record followed here is patent US20240398784A1, “C-LINKED ISOQUINOLINE AMIDES AS LRRK2 INHIBITORS, PHARMACEUTICAL COMPOSITIONS, AND USES THEREOF” (Merck Sharp & Dohme LLC, priority 2021, published 2024).

Molecules are shown by their SMILES.

Chain of LRRK2 G2019S (Q5S007 whole entry G2019S): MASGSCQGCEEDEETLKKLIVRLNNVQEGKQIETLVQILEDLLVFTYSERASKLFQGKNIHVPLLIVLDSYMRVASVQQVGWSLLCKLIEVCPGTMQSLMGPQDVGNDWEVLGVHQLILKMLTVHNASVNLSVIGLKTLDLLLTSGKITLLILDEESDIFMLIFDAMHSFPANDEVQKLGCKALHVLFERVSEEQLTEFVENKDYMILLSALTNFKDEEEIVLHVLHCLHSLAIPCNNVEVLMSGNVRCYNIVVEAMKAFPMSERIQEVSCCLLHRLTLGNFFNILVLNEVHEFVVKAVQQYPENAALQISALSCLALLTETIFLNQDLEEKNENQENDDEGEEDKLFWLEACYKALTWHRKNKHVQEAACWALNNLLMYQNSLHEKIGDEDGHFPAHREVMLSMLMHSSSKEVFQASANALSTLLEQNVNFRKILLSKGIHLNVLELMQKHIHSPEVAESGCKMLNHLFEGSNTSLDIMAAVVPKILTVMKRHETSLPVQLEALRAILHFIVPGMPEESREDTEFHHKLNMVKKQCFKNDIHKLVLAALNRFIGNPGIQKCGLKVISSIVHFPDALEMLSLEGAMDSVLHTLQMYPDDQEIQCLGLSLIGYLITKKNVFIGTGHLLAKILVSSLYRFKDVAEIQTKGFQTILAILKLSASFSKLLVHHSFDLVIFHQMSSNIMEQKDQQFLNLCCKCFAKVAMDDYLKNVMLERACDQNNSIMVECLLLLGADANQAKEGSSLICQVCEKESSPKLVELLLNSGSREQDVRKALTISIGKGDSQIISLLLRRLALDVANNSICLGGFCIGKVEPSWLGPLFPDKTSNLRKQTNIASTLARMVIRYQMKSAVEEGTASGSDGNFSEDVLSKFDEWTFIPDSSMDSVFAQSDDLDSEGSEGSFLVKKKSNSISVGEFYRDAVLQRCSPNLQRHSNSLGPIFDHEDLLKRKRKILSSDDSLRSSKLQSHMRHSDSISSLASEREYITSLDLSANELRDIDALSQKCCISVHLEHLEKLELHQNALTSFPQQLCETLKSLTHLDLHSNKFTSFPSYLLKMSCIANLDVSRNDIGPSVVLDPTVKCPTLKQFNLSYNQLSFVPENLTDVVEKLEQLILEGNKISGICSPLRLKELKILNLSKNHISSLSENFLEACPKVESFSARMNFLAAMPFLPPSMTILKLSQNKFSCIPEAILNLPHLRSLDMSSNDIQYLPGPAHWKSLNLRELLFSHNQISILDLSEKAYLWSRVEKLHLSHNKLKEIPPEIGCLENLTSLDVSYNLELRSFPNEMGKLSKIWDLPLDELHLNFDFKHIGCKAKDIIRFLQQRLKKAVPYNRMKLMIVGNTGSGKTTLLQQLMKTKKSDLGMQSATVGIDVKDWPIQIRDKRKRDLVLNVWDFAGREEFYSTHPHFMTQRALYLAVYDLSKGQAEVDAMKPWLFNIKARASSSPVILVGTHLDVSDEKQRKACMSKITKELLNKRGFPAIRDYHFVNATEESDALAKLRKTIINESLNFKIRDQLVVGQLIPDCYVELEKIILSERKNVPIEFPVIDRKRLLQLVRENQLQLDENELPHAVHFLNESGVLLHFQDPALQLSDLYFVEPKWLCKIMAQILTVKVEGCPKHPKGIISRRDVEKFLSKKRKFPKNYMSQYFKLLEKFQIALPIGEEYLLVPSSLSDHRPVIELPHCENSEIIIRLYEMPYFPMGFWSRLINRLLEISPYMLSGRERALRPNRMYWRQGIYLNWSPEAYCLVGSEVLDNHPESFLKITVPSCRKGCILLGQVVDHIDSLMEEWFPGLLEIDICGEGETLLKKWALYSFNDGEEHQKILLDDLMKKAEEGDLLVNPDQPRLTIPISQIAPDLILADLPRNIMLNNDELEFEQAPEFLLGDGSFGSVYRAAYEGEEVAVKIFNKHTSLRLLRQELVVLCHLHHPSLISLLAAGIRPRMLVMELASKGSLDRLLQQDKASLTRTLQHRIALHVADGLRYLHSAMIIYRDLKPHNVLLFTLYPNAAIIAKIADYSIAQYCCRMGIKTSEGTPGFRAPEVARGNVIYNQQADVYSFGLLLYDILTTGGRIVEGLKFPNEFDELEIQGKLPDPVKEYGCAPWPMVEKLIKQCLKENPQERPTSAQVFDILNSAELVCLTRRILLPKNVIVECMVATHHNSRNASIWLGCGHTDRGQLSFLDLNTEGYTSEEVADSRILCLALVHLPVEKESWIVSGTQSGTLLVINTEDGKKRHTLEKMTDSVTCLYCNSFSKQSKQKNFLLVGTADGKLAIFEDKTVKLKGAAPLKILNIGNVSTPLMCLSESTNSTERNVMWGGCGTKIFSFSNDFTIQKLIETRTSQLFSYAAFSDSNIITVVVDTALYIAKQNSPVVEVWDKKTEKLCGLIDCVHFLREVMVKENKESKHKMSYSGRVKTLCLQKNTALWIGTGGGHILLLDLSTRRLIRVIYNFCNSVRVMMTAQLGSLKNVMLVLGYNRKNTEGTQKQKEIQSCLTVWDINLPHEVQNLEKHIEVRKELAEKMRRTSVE

One experiment addresses LRRK2 G2019S (Homo sapiens, UniProt Q5S007, G2019S). Nature of the experiment: LRRK2 G2019S Km ATP LanthaScreen assay. It counts as biochemical.
Details: not given
With `O=C(Nc1cc2cc(C3CCN([C@@H]4COC[C@@H]4O)CC3)c(Cl)cc2cn1)C1CC12CCOC2` (single isomer, unassigned) [Ex-8.1, N-(7-chloro-6-(1-((3R,4R or 3S,4S)-4-hydroxytetrahydrofuran-3-yl)piperidin-4-yl)isoquinolin-3-yl)-5-oxaspiro[2.4]heptane-1-carboxamide], the “LRRK2 pIC50” value is given as 10.0.

Staying with this experiment, now noted: read-out: LRRK2 pIC50 (converted).
On to `CC1(C)CC(C(=O)Nc2cc3cc(C4CCN(C5(C)CCOC5)CC4)c(Cl)cc3cn2)CCO1` (single isomer, unassigned) [Ex-6.45, N-(7-chloro-6-(1-(3-methyltetrahydrofuran-3-yl)piperidin-4-yl)isoquinolin-3-yl)-2,2-dimethyltetrahydro-2H-pyran-4-carboxamide], for which the IC50 is 2.14 nM.

Consider `CC1(C)CC(C(=O)Nc2cc3cc(C4CCN(C5(C)CCOC5)CC4)c(Cl)cc3cn2)CCO1` (single isomer, unassigned) [Ex-6.46, N-(7-chloro-6-(1-(3-methyltetrahydrofuran-3-yl)piperidin-4-yl)isoquinolin-3-yl)-2,2-dimethyltetrahydro-2H-pyran-4-carboxamide], for which the IC50 was 1.2 nM. The same measure, in the same setting: the result for `CC1(C)CC(C(=O)Nc2cc3cc(C4CCN(C5(C)CCOC5)CC4)c(Cl)cc3cn2)CCO1` (single isomer, unassigned) [Ex-6.47, N-(7-chloro-6-(1-(3-methyltetrahydrofuran-3-yl)piperidin-4-yl)isoquinolin-3-yl)-2,2-dimethyltetrahydro-2H-pyran-4-carboxamide] reads 0.724 nM; that for `COC1COCC1N1CCC(c2cc3cc(NC(=O)C4CC45CCOCC5)ncc3cc2Cl)CC1` (single isomer, unassigned) [Ex-6.52, N-(7-chloro-6-(1-(4-methoxytetrahydrofuran-3-yl)piperidin-4-yl)isoquinolin-3-yl)-6-oxaspiro[2.5]octane-1-carboxamide], 0.2 nM; that for `COC1COCC1N1CCC(c2cc3cc(NC(=O)C4CC45CCOCC5)ncc3cc2Cl)CC1` (single isomer, unassigned) [Ex-6.53, N-(7-chloro-6-(1-(4-methoxytetrahydrofuran-3-yl)piperidin-4-yl)isoquinolin-3-yl)-6-oxaspiro[2.5]octane-1-carboxamide], 3.39 nM. Take `Cn1cc(C(C)(C)C(=O)Nc2cc3cc(C4CCN(C5(C)COCC5F)CC4)c(Cl)cc3cn2)cn1` (single isomer, unassigned) [Ex-6.54, N-(7-chloro-6-(1-(4-fluoro-3-methyltetrahydrofuran-3-yl)piperidin-4-yl)isoquinolin-3-yl)-2-methyl-2-(1-methyl-1H-pyrazol-4-yl)propenamide]: the IC50 was 27.5 nM.

Take `Cn1cc(C(C)(C)C(=O)Nc2cc3cc(C4CCN(C5(C)COCC5F)CC4)c(Cl)cc3cn2)cn1` (single isomer, unassigned) [Ex-6.55, N-(7-chloro-6-(1-(4-fluoro-3-methyltetrahydrofuran-3-yl)piperidin-4-yl)isoquinolin-3-yl)-2-methyl-2-(1-methyl-1H-pyrazol-4-yl)propenamide]: the IC50 was 447 nM. Same read-out and setting: with `CC1(N2CCC(c3cc4cc(NC(=O)C5CC56CCOCC6)ncc4cc3F)CC2)COCC1O` (single isomer, unassigned) [Ex-8.3, N-(7-fluoro-6-(1-(4-hydroxy-3-methyltetrahydrofuran-3-yl)piperidin-4-yl)isoquinolin-3-yl)-6-oxaspiro[2.5]octane-1-carboxamide] the figure was 0.195 nM. On the same count and under the same terms, with `CC1(N2CCC(c3cc4cc(NC(=O)C5CC5c5ccccn5)ncc4cc3F)CC2)COCC1O` (single isomer, unassigned) [Ex-8.4, N-(7-fluoro-6-(1-(4-hydroxy-3-methyltetrahydrofuran-3-yl)piperidin-4-yl)isoquinolin-3-yl)-2-(pyridin-2-yl)cyclopropane-1-carboxamide] the figure was 0.0813 nM.
